According to publication PMC3937211, “Serine Carboxypeptidase SCPEP1 and Cathepsin A Play Complementary Roles in Regulation of Vasoconstriction via Inactivation of Endothelin-1” (PLoS Genetics, 2014):

What was measured:
Scpep1 = target: T1, Scpep1 (Mus musculus, UniProt Q920A5); assay: Carboxypeptidase activity of purified recombinant Scpep1-His6 against ET-1; assay type: biochemical; conditions: pH 6.5 and 7.5, 50 µM ET-1
T1 construct: Scpep1 has a cleavable signal peptide, N-linked glycans, the Ser-Asp-His catalytic triad and is proteolytically processed from a 55 kDa precursor; made in house; host or cells: HT1080 cells (stably transfected), protein purified from the culture medium
T1 sequence (Q920A5 29-452): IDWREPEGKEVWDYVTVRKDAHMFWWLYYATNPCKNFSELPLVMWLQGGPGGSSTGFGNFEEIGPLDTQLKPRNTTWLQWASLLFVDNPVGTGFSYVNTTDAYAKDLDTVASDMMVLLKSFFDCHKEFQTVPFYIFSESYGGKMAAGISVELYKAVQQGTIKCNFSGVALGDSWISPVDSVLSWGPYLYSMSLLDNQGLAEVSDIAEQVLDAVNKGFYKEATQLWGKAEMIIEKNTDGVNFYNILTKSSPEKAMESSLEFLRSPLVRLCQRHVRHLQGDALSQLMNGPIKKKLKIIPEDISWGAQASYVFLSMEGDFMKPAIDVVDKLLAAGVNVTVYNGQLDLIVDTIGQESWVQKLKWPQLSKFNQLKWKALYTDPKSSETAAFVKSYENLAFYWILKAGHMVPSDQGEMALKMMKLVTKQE
Text: Figure 1 Scpep1 has carboxypeptidase activity against ET-1. A. Carboxypeptidase activity against ET-1 in homogenates of cultured AVSMC from WT, Scpep1 ^−/−, CathA^S190A and Scpep1 ^−/− /CathA^S190A mice as well as from the cells of Scpep1 ^−/− /CathA^S190A mice transiently transfected with pCMV-GFP and pCMV-Scpep1 plasmids. AVSMC after the passage 3 were transfected or not with Scpep1-RGS-His-Tag and pEGFP-C1 plasmids. Forty-eight hours after transfection confluent cells were harvested, homogenized and tested for carboxypeptidase activity using 50 µM ET-1 as a substrate. Data are expressed as means (±S.D.) of 3 independent experiments performed with different cell cultures. * p<0.05 and ** p<0.01 in two-tailed unpaired t-test. B. Carboxypeptidase activity against ET-1 in homogenates of cultured AVSMC from WT mice transfected with Scpep1 and CathA shRNA. […] The amino acid analysis of the reaction mixture determined that Scpep1 cleaves the C-terminal amino acid (Trp21) from ET-1 (not shown). […]
HT1080 cells stably expressing Scpep1-His6 [19] were cultured in DMEM with 0.05% FCS. […] Purity of Scpep1-His6 was monitored by silver staining and Western blotting.
Carboxypeptidase activity in cultured AVSMC was measured against 50 µM ET-1 as previously described using the method measuring the liberation rate of the C-terminal amino acid of the peptide. […]

mesenteric arteries = assay: Vessel reactivity ex vivo; set-up: species or system mouse; conditions: 10^−11–10^−8 M
Protocol: Vessel reactivity ex vivo was analyzed as described, [40]. Briefly, male mice were sacrificed at five months and their mesenteric arteries were isolated and mounted onto glass capillaries in an artereograph chamber filled with cold oxygenated Krebs solution (118.6 mM NaCl, 4.7 mM KCl, 1.2 mM KH2PO4, 1.2 mM MgSO4, 25.1 mM NaHCO3, 26 µM EDTA, 0.18% glucose, 2.5 mM CaCl2). The arteries were constantly perfused intraluminally with Krebs solution at 30 mmHg. After 45 minutes of equilibration vascular reactivity was measured in response to Norepinephrine (Sigma A-0937, 10^−9–10^−5 M), Acetylcholine (Sigma A-6625, 10^−9–10^−4 M), Sodium Nitroprusside (Calbiochem 56538, 10^−9–10^−4 M), Endothelin-1 (American Peptide Company 88-1-10, 10^−11–10^−8 M) and AI, (American Peptide Company 12-1-10, 10^−8–10^−4 M). Drugs were added extraluminally with a 30 min washout period in between each drug, during which the arteries were able to re-equilibrate to a baseline. To test vasodilatation arteries were pre-contracted with NE to 70% of their equilibration diameter. At least 3 concentration response curves were conducted for each vessel and at least 6 animals were studied for each genotype.

- carboxypeptidase activity against ET-1 compared with pH 5.5 (Scpep1): Lower activity
Substance: endothelin-1 [ET-1]
- vessel reactivity versus WT mice (mesenteric arteries; mesenteric arteries of CathA^S190A and Scpep1^−/− mice): higher
- vessel reactivity versus all other groups of mice (mesenteric arteries; mesenteric arteries of CathA^S190A/Scpep1^−/− mice): significantly higher
